Experimental data taken from US20160038532A1, “Treatment of Multiple Sclerosis With Combination of Laquinimod and Glatiramer Acetate” (TEVA PHARMACEUTICAL INDUSTRIES, LTD., priority 2011, published 2016).
“And” between values parts separate entries of the source, which are not always exact repeats. Equal values may be shown once. Marks after values point to notes of the source that are not given here.

Legend:
[1] = in vivo; cited from earlier work
Multiple Sclerosis = conditions: two phase III trials; cited from earlier work
MOG-induced EAE = experiment: MOG-induced EAE, laquinimod alone and with GA blocking (Example 2.1), clinical signs; assay type: in vivo, C57B1/6 mice; design: Mortality: concentration or dose not given beside the values
multiple sclerosis (MS) = conditions: daily subcutaneous injections, 20 mg/injection; cited from earlier work
[2] = laquinimod 5 mg/kg/day gavage, alone or + GA-blocking 12.5 mg/kg day 0
[3] = laquinimod 25 mg/kg/day gavage, alone or + GA-blocking 12.5 mg/kg day 0
[4] = GA-blocking 12.5 mg/kg (250 μg/mouse) in inoculum day 0

CCN(C(=O)c1c(O)c2c(Cl)cccc2n(C)c1=O)c1ccccc1 [laquinimod]
oral bioavailability [1]: high oral bioavailability
safety and tolerability profile (Multiple Sclerosis): favorable safety and tolerability profile
inhibition at 5 mg/kg (MOG-induced EAE; Mus musculus, po, 0 h, laquinimod 5 mg/kg/day gavage, alone or + GA-blocking 12.5 mg/kg day 0, read-out: % inhibition compared to control (GMS)): 31.2%
inhibition at 25 mg/kg (MOG-induced EAE; Mus musculus, po, 0 h, laquinimod 25 mg/kg/day gavage, alone or + GA-blocking 12.5 mg/kg day 0, read-out: % inhibition compared to control (GMS)): 54.4%
Group Mean Score (MOG-induced EAE; [2]): 2.25**
Incidence (MOG-induced EAE; [2]): 13/13
Mean Disease Duration (MOG-induced EAE; [2]): 13.2*** days
Mean Maximal Score (MOG-induced EAE; [2]): 4.38*
Mean Onset (MOG-induced EAE; [2]): 16.8* days
Group Mean Score (MOG-induced EAE; [3]): 1.49***
Incidence (MOG-induced EAE; [3]): 14/15
Mean Disease Duration (MOG-induced EAE; [3]): 10.0*** days
Mean Maximal Score (MOG-induced EAE; [3]): 3.27***
Mean Onset (MOG-induced EAE; [3]): 20.3** days
Mortality (MOG-induced EAE; mouse, in vivo): 0/15 and 2/13

L-glutamic acid polymer with L-alanine, L-lysine and L-tyrosine, acetate (salt) [GA]
effect on relapse rates, progression of disability, new MRI lesions (multiple sclerosis (MS)): reduce relapse rates
% inhibition compared to Control (GMS) (MOG-induced EAE; [4]): 48%
Group Mean Score (MOG-induced EAE; [4]): 1.70**
Incidence (MOG-induced EAE; [4]): 14/16
Mean Disease Duration (MOG-induced EAE; [4]): 10.9*** days
Mean Maximal Score (MOG-induced EAE; [4]): 3.34**
Mean Onset (MOG-induced EAE; [4]): 19.5* days
